In ChEMBL document CHEMBL5576038, “Design of a novel long-acting dual GLP-1/GIP receptor agonist” (Bioorg Med Chem, 2024):
Active and inactive are the calls of the source. The rule behind the calls is not given here. Where a SMILES comes first, the peptide text is derived from it. [ ]: non-standard residue; d: D form. The star is where a group is joined. X1 = N[C@@H](CCCCNC(=O)CC[C@H](NC(=O)CCCCCCCCCCCCCCCCCCC(=O)O)C(=O)O)C(=O)NCCCC[C@H](N)C(=O)N[C@@H](CCCCNC(=O)C*)C(=O)O; X4 = O=C(O)CCCCCCCCCCCCCCCCCCC(=O)NCCOCCOCC(=O)N[C@@H](CCC(=O)N[C@@H](CCC(=O)N[C@@H](CCCCNC(=O)C*)C(=O)O)C(=O)O)C(=O)O; X6 = N[C@@H](CCCCNC(=O)CC[C@H](NC(=O)CCCCCCCCCCCCCCCCC(=O)O)C(=O)O)C(=O)NCCCC[C@H](N)C(=O)N[C@@H](CCCCNC(=O)C*)C(=O)O; X3 = O=C(O)CCCCCCCCCCCCCCCCC(=O)NCCOCCOCC(=O)N[C@@H](CCC(=O)N[C@@H](CCC(=O)N[C@@H](CCCCNC(=O)C*)C(=O)O)C(=O)O)C(=O)O; Aib = CC(C)(N)C(=O)O

Columns and labels:
[1] = biological target: T1, Gastric inhibitory polypeptide receptor (Homo sapiens, UniProt P48546); assay: Agonist activity at human GIPR expressed in CHO cells assessed as increase in cAMP production incubated for 30 mins by Eu-cAMP tracer based microplate reader analysis; type: functional, cell-based
T1 sequence (P48546 whole entry): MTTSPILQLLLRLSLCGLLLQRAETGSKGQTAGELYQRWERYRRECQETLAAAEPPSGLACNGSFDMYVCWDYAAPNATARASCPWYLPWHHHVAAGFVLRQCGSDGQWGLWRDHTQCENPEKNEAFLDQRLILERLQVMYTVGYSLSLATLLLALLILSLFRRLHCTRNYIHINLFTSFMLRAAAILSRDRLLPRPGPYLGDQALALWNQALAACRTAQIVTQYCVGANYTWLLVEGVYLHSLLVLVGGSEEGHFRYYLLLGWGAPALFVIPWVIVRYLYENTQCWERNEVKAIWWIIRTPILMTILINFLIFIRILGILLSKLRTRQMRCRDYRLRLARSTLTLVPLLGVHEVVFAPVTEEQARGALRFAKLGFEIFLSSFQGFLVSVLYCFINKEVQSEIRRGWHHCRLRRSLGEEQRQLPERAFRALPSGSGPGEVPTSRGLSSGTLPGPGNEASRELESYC

[2] = biological target: Glucagon-like peptide 1 receptor (Homo sapiens, UniProt P43220); assay: Agonist activity at human GLP-1R expressed in CHO cells assessed as increase in cAMP production incubated for 30 mins by Eu-cAMP tracer based microplate reader analysis; type: functional, cell-based
Glucagon-like peptide 1 receptor, sequence (P43220 whole entry): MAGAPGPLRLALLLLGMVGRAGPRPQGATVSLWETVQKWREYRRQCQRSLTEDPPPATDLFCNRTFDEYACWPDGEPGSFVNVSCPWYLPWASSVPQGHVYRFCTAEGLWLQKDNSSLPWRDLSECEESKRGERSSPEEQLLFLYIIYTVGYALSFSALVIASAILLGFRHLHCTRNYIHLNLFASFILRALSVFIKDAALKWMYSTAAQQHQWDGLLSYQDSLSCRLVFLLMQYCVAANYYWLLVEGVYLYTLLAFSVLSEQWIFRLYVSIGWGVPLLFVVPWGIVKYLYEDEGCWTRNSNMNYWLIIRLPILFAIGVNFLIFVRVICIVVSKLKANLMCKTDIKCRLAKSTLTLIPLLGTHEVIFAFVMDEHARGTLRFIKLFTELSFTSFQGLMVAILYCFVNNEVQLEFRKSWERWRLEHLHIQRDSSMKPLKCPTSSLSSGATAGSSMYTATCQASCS

Mus musculus = assay: Glucose-lowering effect in male ICR mouse assessed as reduction in plasma glucose AUC (0 to 72 hrs) at 30 nmol/kg, sc pretreated for 71 hrs followed by […] administration and measured after 60 mins by oral glucose tolerance test; type: functional, organism-based

Structure (SMILES) | EC50 [1] | EC50 [2] | Activity (Mus musculus) | EC50 ([1]; cho) | EC50 ([2]; cho)
CC(C)C[C@H](NC(=O)[C@H](CC(C)C)NC(=O)[C@H](Cc1c[nH]c2ccccc12)NC(=O)[C@H](CCC(N)=O)NC(=O)[C@@H](NC(=O)[C@H](Cc1ccccc1)NC(=O)[C@H](CC(C)C)NC(=O)[C@H](CCCCN)NC(=O)[C@H](C)NC(=O)[C@H](C)NC(=O)[C@H](CCC(N)=O)NC(=O)[C@H](CSCC(=O)NCCCC[C@H](NC(=O)[C@@H](N)CCCCNC(=O)[C@@H](N)CCCCNC(=O)CC[C@H](NC(=O)CCCCCCCCCCCCCCCCCCC(=O)O)C(=O)O)C(=O)O)NC(=O)[C@H](CCC(=O)O)NC(=O)[C@H](CC(C)C)NC(=O)[C@H](Cc1ccc(O)cc1)NC(=O)[C@H](Cc1ccc(O)cc1)NC(=O)[C@H](CO)NC(=O)[C@H](Cc1ccc(O)cc1)NC(=O)[C@H](CC(=O)O)NC(=O)[C@H](CO)NC(=O)[C@@H](NC(=O)[C@H](Cc1ccccc1)NC(=O)[C@@H](NC(=O)CNC(=O)[C@H](CCC(=O)O)NC(=O)C(C)(C)NC(=O)[C@@H](N)Cc1ccc(O)cc1)[C@@H](C)O)[C@@H](C)O)C(C)C)C(=O)N[C@@H](C)C(=O)NCC(=O)NCC(=O)N1CCC[C@H]1C(=O)N[C@@H](CO)C(=O)N[C@@H](CO)C(=O)NCC(=O)N[C@@H](C)C(=O)N1CCC[C@H]1C(=O)N1CCC[C@H]1C(=O)N1CCC[C@H]1C(=O)N[C@@H](CO)C(N)=O (H-Y[Aib]EGTFTSDYSYYLEC(X1)QAAKLFVQWLLAGGPSSGAPPPS-NH2) | 0.012 nM | 0.52 nM | Active |  | 
CC(C)C[C@H](NC(=O)[C@H](CC(C)C)NC(=O)[C@H](Cc1c[nH]c2ccccc12)NC(=O)[C@H](CSCC(=O)NCCCC[C@H](NC(=O)CC[C@H](NC(=O)CC[C@H](NC(=O)COCCOCCNC(=O)CCCCCCCCCCCCCCCCCCC(=O)O)C(=O)O)C(=O)O)C(=O)O)NC(=O)[C@@H](NC(=O)[C@H](Cc1ccccc1)NC(=O)[C@H](CC(C)C)NC(=O)[C@H](CCCCN)NC(=O)[C@H](C)NC(=O)[C@H](C)NC(=O)[C@H](CCC(N)=O)NC(=O)[C@H](CCCCN)NC(=O)[C@H](CCC(=O)O)NC(=O)[C@H](CC(C)C)NC(=O)[C@H](Cc1ccc(O)cc1)NC(=O)[C@H](Cc1ccc(O)cc1)NC(=O)[C@H](CO)NC(=O)[C@H](Cc1ccc(O)cc1)NC(=O)[C@H](CC(=O)O)NC(=O)[C@H](CO)NC(=O)[C@@H](NC(=O)[C@H](Cc1ccccc1)NC(=O)[C@@H](NC(=O)CNC(=O)[C@H](CCC(=O)O)NC(=O)C(C)(C)NC(=O)[C@@H](N)Cc1ccc(O)cc1)[C@@H](C)O)[C@@H](C)O)C(C)C)C(=O)N[C@@H](C)C(=O)NCC(=O)NCC(=O)N1CCC[C@H]1C(=O)N[C@@H](CO)C(=O)N[C@@H](CO)C(=O)NCC(=O)N[C@@H](C)C(=O)N1CCC[C@H]1C(=O)N1CCC[C@H]1C(=O)N1CCC[C@H]1C(=O)N[C@@H](CO)C(N)=O (H-Y[Aib]EGTFTSDYSYYLEKQAAKLFVC(X4)WLLAGGPSSGAPPPS-NH2) | 1.12 nM | 0.44 nM | Active |  | 
CC(C)C[C@H](NC(=O)[C@H](CC(C)C)NC(=O)[C@H](Cc1c[nH]c2ccccc12)NC(=O)[C@H](CCC(N)=O)NC(=O)[C@@H](NC(=O)[C@H](Cc1ccccc1)NC(=O)[C@H](CC(C)C)NC(=O)[C@H](CSCC(=O)NCCCC[C@H](NC(=O)CC[C@H](NC(=O)CC[C@H](NC(=O)COCCOCCNC(=O)CCCCCCCCCCCCCCCCC(=O)O)C(=O)O)C(=O)O)C(=O)O)NC(=O)[C@H](C)NC(=O)[C@H](C)NC(=O)[C@H](CCC(N)=O)NC(=O)[C@H](CCCCN)NC(=O)[C@H](CCC(=O)O)NC(=O)[C@H](CC(C)C)NC(=O)[C@H](Cc1ccc(O)cc1)NC(=O)[C@H](Cc1ccc(O)cc1)NC(=O)[C@H](CO)NC(=O)[C@H](Cc1ccc(O)cc1)NC(=O)[C@H](CC(=O)O)NC(=O)[C@H](CO)NC(=O)[C@@H](NC(=O)[C@H](Cc1ccccc1)NC(=O)[C@@H](NC(=O)CNC(=O)[C@H](CCC(=O)O)NC(=O)C(C)(C)NC(=O)[C@@H](N)Cc1ccc(O)cc1)[C@@H](C)O)[C@@H](C)O)C(C)C)C(=O)N[C@@H](C)C(=O)NCC(=O)NCC(=O)N1CCC[C@H]1C(=O)N[C@@H](CO)C(=O)N[C@@H](CO)C(=O)NCC(=O)N[C@@H](C)C(=O)N1CCC[C@H]1C(=O)N1CCC[C@H]1C(=O)N1CCC[C@H]1C(=O)N[C@@H](CO)C(N)=O (H-Y[Aib]EGTFTSDYSYYLEKQAAC(X3)LFVQWLLAGGPSSGAPPPS-NH2) | 0.67 nM | 1.02 nM | Active |  | 
CC(C)C[C@H](NC(=O)[C@H](CC(C)C)NC(=O)[C@H](Cc1c[nH]c2ccccc12)NC(=O)[C@H](CSCC(=O)NCCCC[C@H](NC(=O)[C@@H](N)CCCCNC(=O)[C@@H](N)CCCCNC(=O)CC[C@H](NC(=O)CCCCCCCCCCCCCCCCC(=O)O)C(=O)O)C(=O)O)NC(=O)[C@@H](NC(=O)[C@H](Cc1ccccc1)NC(=O)[C@H](CC(C)C)NC(=O)[C@H](CCCCN)NC(=O)[C@H](C)NC(=O)[C@H](C)NC(=O)[C@H](CCC(N)=O)NC(=O)[C@H](CCCCN)NC(=O)[C@H](CCC(=O)O)NC(=O)[C@H](CC(C)C)NC(=O)[C@H](Cc1ccc(O)cc1)NC(=O)[C@H](Cc1ccc(O)cc1)NC(=O)[C@H](CO)NC(=O)[C@H](Cc1ccc(O)cc1)NC(=O)[C@H](CC(=O)O)NC(=O)[C@H](CO)NC(=O)[C@@H](NC(=O)[C@H](Cc1ccccc1)NC(=O)[C@@H](NC(=O)CNC(=O)[C@H](CCC(=O)O)NC(=O)C(C)(C)NC(=O)[C@@H](N)Cc1ccc(O)cc1)[C@@H](C)O)[C@@H](C)O)C(C)C)C(=O)N[C@@H](C)C(=O)NCC(=O)NCC(=O)N1CCC[C@H]1C(=O)N[C@@H](CO)C(=O)N[C@@H](CO)C(=O)NCC(=O)N[C@@H](C)C(=O)N1CCC[C@H]1C(=O)N1CCC[C@H]1C(=O)N1CCC[C@H]1C(=O)N[C@@H](CO)C(N)=O (H-Y[Aib]EGTFTSDYSYYLEKQAAKLFVC(X6)WLLAGGPSSGAPPPS-NH2) | 2.76 nM | 0.4 nM |  |  | 
CC(C)C[C@H](NC(=O)[C@H](CC(C)C)NC(=O)[C@H](Cc1c[nH]c2ccccc12)NC(=O)[C@H](CCC(N)=O)NC(=O)[C@@H](NC(=O)[C@H](Cc1ccccc1)NC(=O)[C@H](CS)NC(=O)[C@H](CCCCN)NC(=O)[C@H](C)NC(=O)[C@H](C)NC(=O)[C@H](CCC(N)=O)NC(=O)[C@H](CCCCN)NC(=O)[C@H](CCC(=O)O)NC(=O)[C@H](CC(C)C)NC(=O)[C@H](Cc1ccc(O)cc1)NC(=O)[C@H](Cc1ccc(O)cc1)NC(=O)[C@H](CO)NC(=O)[C@H](Cc1ccc(O)cc1)NC(=O)[C@H](CC(=O)O)NC(=O)[C@H](CO)NC(=O)[C@@H](NC(=O)[C@H](Cc1ccccc1)NC(=O)[C@@H](NC(=O)CNC(=O)[C@H](CCC(=O)O)NC(=O)C(C)(C)NC(=O)[C@@H](N)Cc1ccc(O)cc1)[C@@H](C)O)[C@@H](C)O)C(C)C)C(=O)N[C@@H](C)C(=O)NCC(=O)NCC(=O)N1CCC[C@H]1C(=O)N[C@@H](CO)C(=O)N[C@@H](CO)C(=O)NCC(=O)N[C@@H](C)C(=O)N1CCC[C@H]1C(=O)N1CCC[C@H]1C(=O)N1CCC[C@H]1C(=O)N[C@@H](CO)C(N)=O (H-Y[Aib]EGTFTSDYSYYLEKQAAKCFVQWLLAGGPSSGAPPPS-NH2) | 14.8 nM | 6.51 nM |  |  | 
CC(C)C[C@H](NC(=O)[C@H](CC(C)C)NC(=O)[C@H](Cc1c[nH]c2ccccc12)NC(=O)[C@H](CCC(N)=O)NC(=O)[C@@H](NC(=O)[C@H](Cc1ccccc1)NC(=O)[C@H](CC(C)C)NC(=O)[C@H](CCCCN)NC(=O)[C@H](C)NC(=O)[C@H](C)NC(=O)[C@H](CCC(N)=O)NC(=O)[C@H](CS)NC(=O)[C@H](CCC(=O)O)NC(=O)[C@H](CC(C)C)NC(=O)[C@H](Cc1ccc(O)cc1)NC(=O)[C@H](Cc1ccc(O)cc1)NC(=O)[C@H](CO)NC(=O)[C@H](Cc1ccc(O)cc1)NC(=O)[C@H](CC(=O)O)NC(=O)[C@H](CO)NC(=O)[C@@H](NC(=O)[C@H](Cc1ccccc1)NC(=O)[C@@H](NC(=O)CNC(=O)[C@H](CCC(=O)O)NC(=O)C(C)(C)NC(=O)[C@@H](N)Cc1ccc(O)cc1)[C@@H](C)O)[C@@H](C)O)C(C)C)C(=O)N[C@@H](C)C(=O)NCC(=O)NCC(=O)N1CCC[C@H]1C(=O)N[C@@H](CO)C(=O)N[C@@H](CO)C(=O)NCC(=O)N[C@@H](C)C(=O)N1CCC[C@H]1C(=O)N1CCC[C@H]1C(=O)N1CCC[C@H]1C(=O)N[C@@H](CO)C(N)=O (H-Y[Aib]EGTFTSDYSYYLECQAAKLFVQWLLAGGPSSGAPPPS-NH2) |  |  |  | 1.87 nM | 0.6 nM
CC(C)C[C@H](NC(=O)[C@H](CC(C)C)NC(=O)[C@H](Cc1c[nH]c2ccccc12)NC(=O)[C@H](CCC(N)=O)NC(=O)[C@@H](NC(=O)[C@H](Cc1ccccc1)NC(=O)[C@H](CC(C)C)NC(=O)[C@H](CS)NC(=O)[C@H](C)NC(=O)[C@H](C)NC(=O)[C@H](CCC(N)=O)NC(=O)[C@H](CCCCN)NC(=O)[C@H](CCC(=O)O)NC(=O)[C@H](CC(C)C)NC(=O)[C@H](Cc1ccc(O)cc1)NC(=O)[C@H](Cc1ccc(O)cc1)NC(=O)[C@H](CO)NC(=O)[C@H](Cc1ccc(O)cc1)NC(=O)[C@H](CC(=O)O)NC(=O)[C@H](CO)NC(=O)[C@@H](NC(=O)[C@H](Cc1ccccc1)NC(=O)[C@@H](NC(=O)CNC(=O)[C@H](CCC(=O)O)NC(=O)C(C)(C)NC(=O)[C@@H](N)Cc1ccc(O)cc1)[C@@H](C)O)[C@@H](C)O)C(C)C)C(=O)N[C@@H](C)C(=O)NCC(=O)NCC(=O)N1CCC[C@H]1C(=O)N[C@@H](CO)C(=O)N[C@@H](CO)C(=O)NCC(=O)N[C@@H](C)C(=O)N1CCC[C@H]1C(=O)N1CCC[C@H]1C(=O)N1CCC[C@H]1C(=O)N[C@@H](CO)C(N)=O (H-Y[Aib]EGTFTSDYSYYLEKQAACLFVQWLLAGGPSSGAPPPS-NH2) | 0.6 nM | 0.29 nM |  |  | 
